Each structure is given as a SMILES string. Entries after “also recorded” stand apart in the source; their conditions may differ. Like-named read-outs stand apart in the source and are kept apart here.

Data set [1] deals with Mcl-1, Bim and caspase 3 in MDA-MB-468 cells. Briefly: Western blotting after treatment of intact human breast cancer cells. The settings on record: 10 μM for 16 h. Format: cell-based.
The target of data set [2] is GST-Mcl-1 / biotinylated Bim BH3 peptide (Homo sapiens, UniProt Q07820). Briefly: ELISA, disruption of Mcl-1 binding to Bim. The settings on record: for fold potency relative to 1 against Mcl-1/Bim: compared with 1. The method, then: (§1) ELISAs were performed using a similar procedure as previously described. Briefly, 40 nM of biotinylated Bim BH3 peptide (Biomatik, Wilmington, DE, USA) in SuperBlock blocking buffer (Thermo Scientific Pierce, Rockford, IL, USA) was incubated in high-binding capacity streptavidin-coated plates (Thermo Scientific Pierce, Rockford, IL, USA) for 2 h. Compounds were diluted in 120 µL of PBS containing 10 nM of GST-Mcl-1 or GST-Bcl-xL in 1.5-mL tubes for 15 min. Wells were washed with wash buffer (PBS containing 0.05% Tween-20) and then 100 µL of the compound/GST-protein mixture was transferred to the wells. The plates were incubated for 2 h, and then, the wells were washed with wash buffer. HRP-conjugated anti-GST antibody (Bethyl Laboratories, Montgomery, TX, USA) was diluted 1:2000 in SuperBlock, and 100 µL were transferred to each well. The plate was incubated for 1 h, and then, the wells were washed with wash buffer followed by PBS. One hundred microliters of SureBlue TMB Microwell Peroxidase Substrate (VWR International, Radnor, PA, USA) was added to each well, and the plates were developed for 5–10 min. One hundred microliters of 1 N HCl was added to each well to stop the reaction, and the absorbance was read at 450 nm using a µQuant plate reader (Bio-Tek Instruments, Winooski, VT, USA).
GST-Mcl-1 / biotinylated Bim BH3 peptide, sequence (Q07820 whole entry): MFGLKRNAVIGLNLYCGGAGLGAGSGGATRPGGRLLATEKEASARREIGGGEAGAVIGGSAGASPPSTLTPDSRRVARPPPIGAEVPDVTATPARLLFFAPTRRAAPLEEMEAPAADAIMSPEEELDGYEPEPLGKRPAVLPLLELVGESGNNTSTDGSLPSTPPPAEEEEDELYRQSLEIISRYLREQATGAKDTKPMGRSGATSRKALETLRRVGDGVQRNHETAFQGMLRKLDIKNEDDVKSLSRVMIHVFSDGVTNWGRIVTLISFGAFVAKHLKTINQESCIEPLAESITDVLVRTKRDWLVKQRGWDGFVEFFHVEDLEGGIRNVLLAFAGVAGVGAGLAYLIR
In general terms: An ELISA detects its analyte on a solid surface through an enzyme-linked reagent.

The target of data set [3] is GST-Bcl-xL / biotinylated Bim BH3 peptide (Homo sapiens, UniProt Q07817). Briefly: ELISA, disruption of Bcl-xL binding to Bim. The settings on record: for fold potency relative to 1 against Bcl-xL/Bim: compared with 1; for IC50: 10 nM GST-Bcl-xL, 40 nM biotinylated Bim BH3 peptide, read-out: IC50 against Bcl-xL/Bim binding. The method, then:
as §1

GST-Bcl-xL / biotinylated Bim BH3 peptide, sequence (Q07817 whole entry): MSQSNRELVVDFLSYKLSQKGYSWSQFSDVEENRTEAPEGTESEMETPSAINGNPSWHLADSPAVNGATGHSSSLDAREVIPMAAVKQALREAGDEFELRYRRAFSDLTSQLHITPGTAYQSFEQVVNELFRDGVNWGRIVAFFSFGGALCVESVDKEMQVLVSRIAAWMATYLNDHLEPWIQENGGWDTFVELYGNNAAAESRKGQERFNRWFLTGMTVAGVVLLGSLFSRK

On to `O=C(c1ccccc1O)c1[nH]c(Cl)c(Cl)c1-n1c(C(=O)c2ccccc2O)cc(Cl)c1Cl` (racemic) [Compound 1, (±)-marinopyrrole A, reference compound], for which, in data set [1], the “cleavage of caspase 3” value is given as “cleave caspase 3”; the “levels of Mcl-1 and Bim” value is on record as “able to decrease”. Besides, in data set [2], the IC50 is 8.9 µM.

As for `O=C1c2ccc(OS(=O)(=O)C(F)(F)F)cc2Oc2c(Cl)cc(C(=O)c3ccc(OS(=O)(=O)C(F)(F)F)cc3O)n2-c2c1[nH]c(Cl)c2Cl` [Compound 3, 3-Hydroxy-4-(2,3,7-trichloro-13-oxo-10-(((trifluoromethyl)sulfonyl)oxy)-1,13 dihydrobenzo[g]di-pyrrolo[2,1-b:3′,2′-d][1,3]oxazocine-5-carbonyl)phenyl trifluoromethanesulfonate], the “fold potency relative to 1 against Bcl-xL/Bim” value in data set [3] is “seven-fold higher potency”. Further, the “fold potency relative to 1 against Mcl-1/Bim” value in data set [2] (ELISA) was “six”.

With `COC(=O)c1ccc(C(=O)c2cc(Cl)c3n2-c2c([nH]c(Cl)c2Cl)C(=O)c2ccc(C(=O)OC)cc2O3)c(O)c1` [Compound 4, Methyl-2,3,7-trichloro-5-(2-hydroxy-4-(methoxycarbonyl)benzoyl)-13-oxo-1,13-dihydrobenzo[g]-dipyrrolo[2,1-b:3′,2′-d][1,3]oxazocine-10-carboxylate], the “fold potency relative to 1 against Bcl-xL/Bim” value in data set [3] is “seven-fold more potent”. Also, in data set [2] (ELISA), the “fold potency relative to 1 against Mcl-1/Bim” value is recorded as “two-fold more potent”.

In the case of `COC(=O)c1ccc(C(=O)c2[nH]c(Cl)c(Cl)c2-n2c(C(=O)c3ccc(C(=O)OC)cc3O)cc(Cl)c2Cl)c(O)c1` [Compound 4a, dimethyl-4,4′-(4,4′,5,5′-tetrachloro-1′H-[1,3′-bipyrrole]-2,2′-dicarbonyl)bis(3-hydroxybenzoate)], in data set [1], the “cleavage of caspase 3” value is “cleavage of caspase 3”; the “levels of Mcl-1 and Bim” value is “significant decrease”. The “activity against Mcl-1/Bim (in words)” value in data set [2] (ELISA) is “showed activity”.

Turning to `CCOP(=O)(OCC)c1ccc(C(=O)c2cc(Cl)c3n2-c2c([nH]c(Cl)c2Cl)C(=O)c2ccc(P(=O)(OCC)OCC)cc2O3)c(O)c1` [Compound 5, 3-Hydroxy-4-(2,3,7-trichloro-13-oxo-10-(diethylphosphonyl)-1,13-dihydrobenzo[g]dipyrrolo[2,1-b:3′,2′-d][1,3]oxazocine-5-carbonyl)diethyl phosphonate], the IC50 in data set [3] was greater than 100 µM; in data set [2] (ELISA, 10 nM GST-Mcl-1, 40 nM biotinylated Bim BH3 peptide, read-out: IC50 to disrupt the binding of Mcl-1 to Bim), greater than 100 µM.

In the case of `CCOP(=O)(OCC)c1ccc(C(=O)c2[nH]c(Cl)c(Cl)c2-n2c(C(=O)c3ccc(P(=O)(OCC)OCC)cc3O)cc(Cl)c2Cl)c(O)c1` [Compound 5a, tetraethyl((4,4′,5,5′-tetrachloro-1′H-[1,3′-bipyrrole]-2,2′-dicarbonyl)bis(3-hydroxy-4,1-phenylene))bis(phosphonate)], in data set [1], the “cleavage of caspase 3” value is given as “little effect”; the “levels of Mcl-1 and Bim” value was “little effect”. Besides, in data set [3], the IC50 is greater than 100 µM. In data set [2] (ELISA), the “activity against Mcl-1/Bim (in words)” value is “showed activity”.

`O=C(O)c1ccc(C(=O)c2[nH]c(Cl)c(Cl)c2-n2c(C(=O)c3ccc(C(=O)O)cc3O)cc(Cl)c2Cl)c(O)c1` [Compound 7a, 4,4′-(4,4′,5,5′-Tetrachloro-1′H-[1,3′-bipyrrole]-2,2′-dicarbonyl)bis(3-hydroxybenzoic acid)]: the melting point fell in the range of 190.5 to 192 °C. Besides, in data set [1], the “cleavage of caspase 3” value is “little caspase 3 cleavage”; the “levels of Mcl-1 and Bim” value is “did not decrease”. Besides, the “activity against Bcl-xL/Bim (in words)” value in data set [3] is given as “little activity; also recorded: less active”. Also, in data set [2] (ELISA), the “activity against Mcl-1/Bim (in words)” value is “lower activity than 1; also recorded: less active”.

`O=C(c1ccc(P(=O)(O)O)cc1O)c1[nH]c(Cl)c(Cl)c1-n1c(C(=O)c2ccc(P(=O)(O)O)cc2O)cc(Cl)c1Cl` [Compound 8a, ((4,4′,5,5′-Tetrachloro-1′H-[1,3′-bipyrrole]-2,2′-dicarbonyl)bis(3-hydroxy-4,1-phenylene))diphosphonic acid]: in data set [1], the “cleavage of caspase 3” value is given as “little effect”; the “levels of Mcl-1 and Bim” value is “little effect”. Also, the “activity against Bcl-xL/Bim (in words)” value in data set [3] was “less active”. The “activity against Mcl-1/Bim (in words)” value in data set [2] (ELISA) is “slightly less potent than 1; also recorded: less active”.

Usually melting point stands for the temperature of the solid-liquid transition.

These data come from article PMC3967213, “Cyclic Marinopyrrole Derivatives as Disruptors of Mcl-1 and Bcl-xL Binding to Bim” (Marine Drugs, 2014).
